Assays:
[1] = parabacteroides distasonis, 12 h, 2 µM
Description: The drug is tested on Parabacteroides distasonis strain: ATCC8503 for biotransformation. The drug concentrations were measured before and after a 12-h incubation by liquid-chromatography-coupled mass spectrometry (LC–MS)

[2] = bacteroides thetaiotaomicron, 12 h, 2 µM
Description: The drug is tested on Bacteroides thetaiotaomicron strain: VPI-5482 for biotransformation. The drug concentrations were measured before and after a 12-h incubation by liquid-chromatography-coupled mass spectrometry (LC–MS)

[3] = The drug is tested on Providencia rettgeri strain: DSM1131 for biotransformation. The drug concentrations were measured before and after a 12-h incubation by liquid-chromatography-coupled mass spectrometry (LC–MS); type: ADME; design: dose 2 uM, timepoint 0 vs 12 hours; conditions: 2 µM
[4] = The drug is tested on Eubacterium rectale strain: ATCC33656 for biotransformation. The drug concentrations were measured before and after a 12-h incubation by liquid-chromatography-coupled mass spectrometry (LC–MS); conditions: agathobacter rectalis, 2 µM
[5] = The drug is tested on Bacteroides caccae strain: ATCC43185 for biotransformation. The drug concentrations were measured before and after a 12-h incubation by liquid-chromatography-coupled mass spectrometry (LC–MS); conditions: 2 µM
[6] = The drug is tested on Ruminococcus gnavus strain: ATCC29149 for biotransformation. The drug concentrations were measured before and after a 12-h incubation by liquid-chromatography-coupled mass spectrometry (LC–MS); conditions: mediterraneibacter gnavus, 2 µM
[7] = The drug is tested on Ruminococcus torques strain: ATCC27756 for biotransformation. The drug concentrations were measured before and after a 12-h incubation by liquid-chromatography-coupled mass spectrometry (LC–MS); type: ADME; design: dose 2 uM, timepoint 0 vs 12 hours; conditions: 2 µM
[8] = The drug is tested on Blautia luti strain: DSM14534 for biotransformation. The drug concentrations were measured before and after a 12-h incubation by liquid-chromatography-coupled mass spectrometry (LC–MS); type: ADME; design: dose 2 uM, timepoint 0 vs 12 hours; conditions: 2 µM
[9] = The drug is tested on Bacteroides fragilis strain: HMW615 for biotransformation. The drug concentrations were measured before and after a 12-h incubation by liquid-chromatography-coupled mass spectrometry (LC–MS); conditions: 2 µM
[10] = The drug is tested on Collinsella aerofaciens strain: ATCC25986 for biotransformation. The drug concentrations were measured before and after a 12-h incubation by liquid-chromatography-coupled mass spectrometry (LC–MS); conditions: 2 µM
[11] = bacteroides thetaiotaomicron, 12 h, 2 µM; remark: listed apart in the source
Description: The drug is tested on Bacteroides thetaiotaomicron strain: 7330 for biotransformation. The drug concentrations were measured before and after a 12-h incubation by liquid-chromatography-coupled mass spectrometry (LC–MS)

[12] = The drug is tested on Bacteroides pectinophilus strain: ATCC43243 for biotransformation. The drug concentrations were measured before and after a 12-h incubation by liquid-chromatography-coupled mass spectrometry (LC–MS); conditions: 2 µM
[13] = The drug is tested on Providencia stuartii strain: ATCC25827 for biotransformation. The drug concentrations were measured before and after a 12-h incubation by liquid-chromatography-coupled mass spectrometry (LC–MS); conditions: 2 µM
[14] = The drug is tested on Bifidobacterium longum subsp. Infantis strain: CCUG52486 for biotransformation. The drug concentrations were measured before and after a 12-h incubation by liquid-chromatography-coupled mass spectrometry (LC–MS); conditions: 2 µM
[15] = limosilactobacillus reuteri cf48-3a, 12 h, 2 µM
Description: The drug is tested on Lactobacillus reuteri CF48-3A strain: BEI HM-102 for biotransformation. The drug concentrations were measured before and after a 12-h incubation by liquid-chromatography-coupled mass spectrometry (LC–MS)

[16] = The drug is tested on Bacteroides ovatus strain: ATCC8483 for biotransformation. The drug concentrations were measured before and after a 12-h incubation by liquid-chromatography-coupled mass spectrometry (LC–MS); conditions: 2 µM
[17] = The drug is tested on Blautia hansenii strain: DSM20583 for biotransformation. The drug concentrations were measured before and after a 12-h incubation by liquid-chromatography-coupled mass spectrometry (LC–MS); conditions: 2 µM
[18] = The drug is tested on Bacteroides vulgatus strain: ATCC8482 for biotransformation. The drug concentrations were measured before and after a 12-h incubation by liquid-chromatography-coupled mass spectrometry (LC–MS); conditions: phocaeicola vulgatus, 2 µM
[19] = bacteroides fragilis, 12 h, 2 µM
Description: The drug is tested on Bacteroides fragilis strain: NCTC 9343 for biotransformation. The drug concentrations were measured before and after a 12-h incubation by liquid-chromatography-coupled mass spectrometry (LC–MS)

Compound | Bacterial Biotransformation [1] | Bacterial Biotransformation [2] | Bacterial Biotransformation [3] | Bacterial Biotransformation [4] | Bacterial Biotransformation [5] | Bacterial Biotransformation [6] | Bacterial Biotransformation [7] | Bacterial Biotransformation [8] | Bacterial Biotransformation [9] | Bacterial Biotransformation [10] | Bacterial Biotransformation [11] | Bacterial Biotransformation [12] | Bacterial Biotransformation [13] | Bacterial Biotransformation [14] | Bacterial Biotransformation [15] | Bacterial Biotransformation [16] | Bacterial Biotransformation [17] | Bacterial Biotransformation [18] | Bacterial Biotransformation [19]
C[C@@H]1C[C@H]2[C@@H]3CCC4=CC(=O)C=C[C@]4(C)[C@@]3(F)[C@@H](O)C[C@]2(C)[C@@]1(O)C(=O)CO [DEXAMETHASONE] | Compound NOT metabolized | Compound metabolized | Compound NOT metabolized | Compound NOT metabolized | Compound NOT metabolized | Compound NOT metabolized | Compound NOT metabolized | Compound NOT metabolized | – | – | – | – | – | – | – | – | – | – | –
C=C[C@H]1CN2CC[C@H]1C[C@H]2[C@H](O)c1ccnc2ccc(OC)cc12.C=C[C@H]1CN2CC[C@H]1C[C@H]2[C@H](O)c1ccnc2ccc(OC)cc12.O.O.O=S(=O)(O)O [QUININE SULFATE] | Compound NOT metabolized | – | Compound NOT metabolized | Compound NOT metabolized | Compound NOT metabolized | Compound NOT metabolized | Compound NOT metabolized | Compound NOT metabolized | Compound NOT metabolized | Compound NOT metabolized | Compound NOT metabolized | Compound NOT metabolized | Compound NOT metabolized | Compound NOT metabolized | Compound NOT metabolized | Compound NOT metabolized | – | – | –
CCN(CC)CCNC(=O)c1cc(S(C)(=O)=O)ccc1OC [TIAPRIDE] | Compound NOT metabolized | Compound NOT metabolized | Compound NOT metabolized | Compound NOT metabolized | Compound NOT metabolized | Compound NOT metabolized | Compound NOT metabolized | Compound NOT metabolized | Compound NOT metabolized | Compound NOT metabolized | Compound NOT metabolized | Compound NOT metabolized | Compound NOT metabolized | Compound NOT metabolized | Compound NOT metabolized | Compound NOT metabolized | Compound NOT metabolized | Compound NOT metabolized | Compound NOT metabolized
Cc1ccc(/C(=C\CN2CCCC2)c2ccccn2)cc1 [TRIPROLIDINE] | Compound NOT metabolized | Compound NOT metabolized | Compound NOT metabolized | – | Compound NOT metabolized | Compound NOT metabolized | Compound NOT metabolized | Compound NOT metabolized | Compound NOT metabolized | Compound NOT metabolized | Compound NOT metabolized | Compound NOT metabolized | Compound NOT metabolized | – | Compound NOT metabolized | Compound NOT metabolized | – | Compound NOT metabolized | Compound NOT metabolized
CC12CC3CC(C)(C1)CC(N)(C3)C2 [MEMANTINE] | Compound NOT metabolized | Compound NOT metabolized | – | – | Compound NOT metabolized | Compound NOT metabolized | Compound NOT metabolized | Compound NOT metabolized | Compound NOT metabolized | Compound NOT metabolized | Compound NOT metabolized | Compound NOT metabolized | Compound NOT metabolized | Compound NOT metabolized | – | Compound NOT metabolized | – | Compound NOT metabolized | Compound NOT metabolized
COC(=O)C(c1ccccc1)C1CCCCN1 (configuration not stated) [METHYLPHENIDATE] | – | Compound NOT metabolized | – | – | Compound NOT metabolized | Compound NOT metabolized | Compound NOT metabolized | – | Compound NOT metabolized | Compound NOT metabolized | Compound NOT metabolized | Compound NOT metabolized | Compound NOT metabolized | Compound NOT metabolized | – | Compound NOT metabolized | Compound metabolized | – | –
CCCCC(=O)N(Cc1ccc(-c2ccccc2-c2nnn[nH]2)cc1)[C@H](C(=O)O)C(C)C | Compound metabolized | – | Compound NOT metabolized | Compound NOT metabolized | Compound NOT metabolized | Compound NOT metabolized | Compound NOT metabolized | – | Compound metabolized | Compound NOT metabolized | Compound metabolized | Compound NOT metabolized | Compound NOT metabolized | Compound NOT metabolized | Compound NOT metabolized | Compound NOT metabolized | Compound NOT metabolized | Compound metabolized | Compound NOT metabolized
Cc1cc(C)cc(OCC2CNC(=O)O2)c1 (configuration not stated) [METAXALONE] | Compound metabolized | – | – | Compound NOT metabolized | Compound NOT metabolized | Compound NOT metabolized | – | Compound NOT metabolized | Compound metabolized | Compound NOT metabolized | – | Compound metabolized | Compound NOT metabolized | Compound NOT metabolized | Compound NOT metabolized | Compound metabolized | Compound metabolized | Compound metabolized | Compound metabolized

— ChEMBL document CHEMBL5303573, “Mapping human microbiome drug metabolism by gut bacteria and their genes” (Nature, 2019)
